Measured values from patent publication US5064946A, “Therapeutic nucleosides” (priority 1987, dated 1991).

Key:
HIV [1] = test: AZT/Acyclovir combinations vs. HIV in vitro (protection); type: cell-based
[2] = system: Friend Leukaemia Virus (FLV); details: Krieg et al. 1978; cited from earlier work
HIV [3] = test: AZT/Interferon combinations vs. HIV in vitro in PBMC: overall inhibition / synergy (all measures of viral replication, isobologram); type: cell-based; details: experiment 1, all concentrations of AZT
E. coli CN314 = test: In vitro antibacterial MIC and synergy studies against E. coli CN314; details: Escherichia coli
[4] = system: vaccinia, HSVI and varicella zoster virus (VZV); details: De Clerq et al. 1980, incl. vaccinia; cited from earlier work
HIV [5] = test: AZT/Interferon combinations vs. HIV in vitro in PBMC: reverse transcriptase (RT) activity of supernatants; type: cell-based; details: rIFNαA 0; for mean reverse transcriptase value: Experiment 2-Day 10
HIV p24 = test: AZT/Interferon combinations vs. HIV in vitro in PBMC: HIV p24 antigen by radioimmunoassay; type: cell-based; details: Experiment 4-Day 14, IFNαA 0
[6] = Ostertag et al. 1974; cited from earlier work
Kaposi's sarcoma (KS) = test: Treatment of Kaposi's sarcoma in 9 patients; type: in vivo, human (patients)
Procedure: In this study, 9 patients diagnosed as having Kaposi's sarcoma (KS) were treated with AZT and the following effects observed.

[7] = system: thrombocytopaenia purpura; test: Anti-ITP activity: platelet count in a patient with thrombocytopaenia purpura; type: in vivo, human (patient)
Procedure: A patient having a platelet count of 38,000 mm^-3 was diagnosed as having thrombocytopaenia purpura (platelet count <100,000 mm^-3) and was treated for 6 weeks with 5 mg/kg of AZT intravenously every 6 hours during which time, their platelet count rose to 140,000 mm^-3. Treatment was then changed to 5 mg/kg/4 hours orally for 4 weeks, discontinued for 4 weeks, when a drop in platelet numbers, to 93,000 mm^-3 after 2 weeks, and to 70,000 mm^-3 after 4 weeks, was seen. Treatment was recommenced at 5 mg/kg/4 hours orally for 5 weeks and the platelet count rose to 194,000 mm^-3.

clinical = details: human, in vivo
Procedure: On days 2 and 3 the patients were also given 500 mg probenecid (PB) every 6 hours and a single dose of AZT was given on day 3.

[8] = system: Friend Leukemia Virus (FLV); test: Anti-Friend Leukemia Virus plaque inhibition in FG-10 cells; type: cell-based; details: 144 h, read-out: Azidothymidine ED50

In the case of `Cc1cn([C@H]2C[C@H](N=[N+]=[N-])[C@@H](CO)O2)c(=O)[nH]c1=O` [AZT], the inhibition at 8 µM (HIV [1]; Human immunodeficiency virus 1, T-cell, AZT alone, 8 μM) is given as 100%, the “AZT concentration required to achieve 100% protection” value (HIV [1]; with ACV 0 μg/ml) is given as 8 µM and the “activity against FLV in in vitro experiments” value [2] is given as “active against FLV”. The “inhibition of HIV” value (HIV [3]) was “fully inhibitory”, the MIC (E. coli CN314) was 1 µg/mL and the “activity against any viruses used in their tests” value [4] was “no appreciable activity”. The “mean reverse transcriptase value” (HIV [5]; AZT 0.01 μM) was 159 cpm/10^6 cells × 10^3, the “mean reverse transcriptase value” (HIV [5]; AZT 0.02 μM) was 110 cpm/10^6 cells × 10^3 and the “mean reverse transcriptase value” (HIV [5]; AZT 0.04 μM) was 71 cpm/10^6 cells × 10^3. The “mean reverse transcriptase value” (HIV [5]; AZT 0.08 μM) was 31 cpm/10^6 cells × 10^3, the “mean reverse transcriptase value” (HIV [5]; AZT 0.16 μM) was 7 cpm/10^6 cells × 10^3 and the “mean RT value” (HIV [5]; Experiment 3-Day 13, AZT 0.02 μM) was 51 cpm/10^6 cells × 10^3. For the same molecule, the “mean RT value” (HIV [5]; Experiment 3-Day 13, AZT 0.04 μM) was 10 cpm/10^6 cells × 10^3, the “mean RT value” (HIV [5]; Experiment 3-Day 13, AZT 0.08 μM) was 2 cpm/10^6 cells × 10^3 and the “mean RT value” (HIV [5]; Experiment 3-Day 13, AZT 0.16 μM) was 5 cpm/10^6 cells × 10^3. For the same molecule, the “mean RT value” (HIV [5]; Experiment 4-Day 11, AZT 0.02 μM) was 8 cpm/10^6 cells × 10^3, the “mean RT value” (HIV [5]; Experiment 4-Day 11, AZT 0.04 μM) was 4 cpm/10^6 cells × 10^3 and the “mean RT value” (HIV [5]; Experiment 4-Day 11, AZT 0.08 μM) was 1 cpm/10^6 cells × 10^3. For the same molecule, the “HIV p24” value (HIV p24; AZT 0.02 μM) was 100-200 ng protein/ml, the “HIV p24” value (HIV p24; AZT 0.04 μM) was 25-30 ng protein/ml and the “HIV p24” value (HIV p24; AZT 0.08 μM) was 11.2 ng protein/ml. For the same molecule, the cellular toxicity [6] was “lack of cellular toxicity”, the response (Kaposi's sarcoma (KS); 9 patients) was 50% and the “patients exhibiting regression of lesions” value (Kaposi's sarcoma (KS); of 9 patients) was “Three”. The “patients in which lesions progressed” value (Kaposi's sarcoma (KS); of 9 patients) was 3 patients, the “patients in which the KS remained stable” value (Kaposi's sarcoma (KS); of 9 patients) was 2 patients and the “patients with complete cure” value (Kaposi's sarcoma (KS); of 9 patients) was “one”. The “response relative to preferred current therapy” value (Kaposi's sarcoma (KS); vs recombinant a-interferon) was “comparable to that obtained with treatment with the preferred current therapy for KS, recombinant a-interferon”, the platelet count ([7]; 2 weeks after discontinuation) was 93,000 mm^-3 and the platelet count ([7]; 4 weeks after discontinuation) was 70,000 mm^-3. For the same molecule, the platelet count ([7]; after 6 weeks 5 mg/kg i.v. every 6 hours (start 38,000)) was 140,000 mm^-3, the platelet count ([7]; treatment recommenced, 5 mg/kg/4 hours orally for 5 weeks) was 194,000 mm^-3 and the “decrease in the total body clearance (Cl/F)” value (clinical) was 3 -fold. For the same molecule, the “peak (Cmax) and trough (Cmin) levels on day 3 vs day 1” value (clinical) was “significantly higher than the corresponding levels on day 1”, the tl/2 (clinical; po, 2 mg/kg) was 0.89 h and the AUC (clinical; po, 2 mg/kg, AUC) was 3.7 µM·h. For the same molecule, the Cmax (clinical; po, 2 mg/kg, Cmax) was 3.74 µM, the Tmax (clinical; po, 2 mg/kg, Tmax) was 30 min and the half-life (clinical; po, 2 mg/kg, mean half-life (tl/2)) was 52.8 min. The half-life (clinical; po, 2 mg/kg, tl/2) was 52.2 min and the EC50 [8] was 5 nM.
